In US20260069606A1, “Oxidative Stress and Diabetes Treatment with Cobinamide” (The Regents of the University of California, priority 2022, published 2026):

How the values were obtained:
H9c2 cells = test: Mitochondrial membrane potential, JC-1 red to green fluorescence; format: cell-based, rat
Experimental: FIGS. 3A-3H. […] FIGS. 3A-3B. […] FIG. 3A. […] FIG. 3B. […] FIGS. 3C-3D. […] FIG. 3D. […] FIGS. 3E-3F. […] FIG. 3E. Representative blots are shown. […] FIG. 3F. […] FIG. 3G. […] FIG. 3H.
The cells were then washed once with PBS, placed back in the DMEM experimental medium, and incubated with the indicated drugs for 30 min. At the end of the incubation period, nuclei of both the MitoSOX Red- and JC-1-treated cells were stained with […] 4′,6-diamidino-2-phenyl-indole (DAPI) for 3 min, washed once with PBS, and returned to the DMEM experimental medium. The cover slips were removed from the wells, mounted in the DMEM experimental medium, and red (MitoSOX Red and JC-1 aggregates), green (JC-1 monomers), and blue (DAPI) fluorescence intensity was assessed using a Keyence BZ-X700 fluorescence microscope at the following paired excitation/emission wavelengths, respectively: 560/630, 490/525, and 360/460 nm.
Increased mitochondrial O2·^− by rotenone would be expected to reduce the mitochondrial membrane potential (ΔΨm), due in part to activation of uncoupling proteins^39. […] Rotenone caused an almost complete loss of red fluorescence and a striking increase in green fluorescence in the cells, indicating a marked decrease in ΔΨm (FIGS. 3C-3D).

D. melanogaster = test: Survival of fruit flies during paraquat poisoning; format: in vivo; conditions: 20 mM paraquat with 0.8 mM drug in food, over 7 d
Experimental: The number of live flies was counted each day for 7 d. The experiment was repeated seven times, for a total of 70 flies per condition. The percent surviving flies was calculated; error bars represent standard deviations and are shown in one direction only for sake of clarity. […] Chi, cobinamide in Panel A and histidyl-cobinamide in Panels B-K; Imp, imisopasem; MnTP, MnTBAP; CbL, cobalamin; DNPH, 2,4-dinitrophenylhydrazine; ND, non-diabetic; D, diabetic; Veh, vehicle.
To test cobinamide in a whole animal, D. melanogaster was selected for initial studies, and oxidative stressed was increased in the files by administering paraquat in their food. Cobinamide was again compared to imisopasem, MnTBAP, and hydroxocobalamin, all administered in food.

hearts of diabetic mice = test: Lipid and protein oxidation and DNA damage in hearts of diabetic mice; format: in vivo
Experimental: FIGS. 4A-4K. Cobinamide Rescues Flies from Paraquat Poisoning and Prevents Abnormal Lipid and Protein Oxidation, DNA Damage, and Fibrosis in the Hearts of Diabetic Mice. FIG. 4A. At time zero, 10 fruit flies (D. melanogaster) were transferred to vials with food to which either phosphate-buffered saline (PBS), 0.8 mM of the indicated drugs, 20 mM paraquat (PQ), or 20 mM paraquat with 0.8 mM of the indicated drugs had been added. The number of live flies was counted each day for 7 d. The experiment was repeated seven times, for a total of 70 flies per condition. The percent surviving flies was calculated; error bars represent standard deviations and are shown in one direction only for sake of clarity. FIGS. 4B-4K. […] The amount of 8-isoprostane (FIG. 4B) was measured by ELISA, protein oxidation (FIGS. 4C-4D) was assessed by immunoblotting, and nitrotyrosine content (FIGS. 4E-4F) was assessed by immunohistochemistry. DNA damage was assessed by 8-OH-deoxyguanosine staining (FIGS. 4G-4H) and a long amplicon qPCR-based assay (FIG. 4I). Cardiac fibrosis (FIGS. 4J-4K) was assessed by Mallory trichrome staining, which stains collagen blue. […] For Panels C, D, and I, frozen heart samples were selected randomly from each of the four groups and were analyzed. For Panel D, blots were analyzed by densitometric scanning using Li-Cor Odyssey software, with the density of each lane normalized to the actin band. […]

[1] = Reaction with superoxide, spin trap DMPO / EPR; format: biochemical
Experimental: The reaction of cobinamide with O2·^− was studied in two different systems, generating O2·^− using a hypoxanthine-xanthine oxidase system.
The second system contained 1 mM hypoxanthine, 0.04 U xanthine oxidase, and 0.26 M DMPO in phosphate-buffered saline, pH 7.4 (PBS). Samples were transferred to a capillary tube, and introduced into the EPR cavity of a Magnettech MiniScope MS5000. DMPO-OH signals arising from the DMPO-OOH spin adduct were measured at 37° C. for 5 min. The area under the DMPO-OOH peak was calculated using Origin 2022b software. To avoid variability across runs, signal amplitudes were normalized to the intensity of simultaneously recorded Mn reference signals originating from ZnS:Mn^2+ fixed within the EPR cavity.
In both systems, the experiments were conducted in the absence and presence of the indicated concentrations of Cbi(III) or Chi(II) 65.
The reaction of Chi(III) with O2·^− was also measured using the spin-trap DMPO, which yields a distinctive electron paramagnetic resonance (EPR) spectrum on reacting with O2·^−. Sub-micromolar concentrations of cobinamide reduced the EPR signal in a dose-dependent fashion, yielding an apparent rate constant of 7.5×10^7 M^−1 s^−1 for the reaction of Chi(III) with O2·^− (FIG. 1B).

C/C1=C2/[N-][C@H]([C@H](CC(N)=O)[C@@]2(C)CCC(=O)NC[C@@H](C)O)[C@]2(C)N=C(/C(C)=C3N=C(/C=C4N=C1[C@@H](CCC(N)=O)C\4(C)C)[C@@H](CCC(N)=O)[C@]\3(C)CC(N)=O)[C@@H](CCC(N)=O)[C@]2(C)CC(N)=O.[Co+3] [cobinamide, aquohydroxo-cobinamide]
JC-1 red to green fluorescence ratio (ΔΨm) in rotenone-treated cells (H9c2 cells; H9c2, 5 μM rotenone 30 min, drugs at 2.5 μM): restored the ratio of red to green fluorescence | JC-1 red to green fluorescence ratio, drug alone (H9c2 cells; H9c2, vehicle-treated cells without rotenone, 2.5 μM): no change | Mortality of paraquat-exposed flies (D. melanogaster): < 30% | All markers of oxidative stress and DNA damage in hearts of diabetic mice (hearts of diabetic mice; 8-isoprostane, protein carbonylation, nitrotyrosine, 8-OH-deoxyguanosine, long-amplicon PCR, three months histidyl-cobinamide in drinking water): significantly reduced all markers of oxidative stress and DNA damage to values similar to those found in the non-diabetic mice | Tyrosine nitration in hearts of diabetic mice (hearts of diabetic mice; nitrotyrosine immunohistochemistry): reduced | Apparent rate constant, reaction with O2·^− [1]: 7.5e+07 M⁻¹ s⁻¹
